Test results reported in ChEMBL document CHEMBL2331407, “Mexican antidiabetic herbs: valuable sources of inhibitors of α-glucosidases” (J Nat Prod, 2013).
pIC50, pKi: −log10 of the molar value. ≈ marks a conversion by molar mass, not a printed value.

Key:
Rattus norvegicus = species: Rattus norvegicus; experiment: Gastroprotective activity in rat assessed as protection against ethanol-induced gastric injury; assay type: functional, Stomach; details: for ED50: Rattus norvegicus, Stomach
Alpha-glucosidase MAL12 [1] = molecular target: T1, Alpha-glucosidase MAL12 (Saccharomyces cerevisiae S288c, UniProt P53341); experiment: (§1) Inhibition of baker's yeast alpha-glucosidase
[2] = test system: alpha-glucosidase (Rattus norvegicus); experiment: Inhibition of rat intestinal alpha-glucosidase; parameters: concentration or dose not given beside the values; details: concentration not given here
[3] = molecular target: alpha-glucosidase (Mus musculus); experiment: Inhibition of alpha-glucosidase from mouse intestine crude homogenate
[4] = Inhibition of rat intestinal alpha-glucosidase
[5] = molecular target: Oligo-1,6-glucosidase IMA1 (Saccharomyces cerevisiae S288c) (UniProt P53051); experiment: as §1
Alpha-glucosidase MAL12 [6] = molecular target: T1, Alpha-glucosidase MAL12; experiment: Mixed type inhibition of baker's yeast alpha-glucosidase by Dixon plot analysis

Chain of Oligo-1,6-glucosidase IMA1 (Saccharomyces cerevisiae S288c) (P53051 whole entry): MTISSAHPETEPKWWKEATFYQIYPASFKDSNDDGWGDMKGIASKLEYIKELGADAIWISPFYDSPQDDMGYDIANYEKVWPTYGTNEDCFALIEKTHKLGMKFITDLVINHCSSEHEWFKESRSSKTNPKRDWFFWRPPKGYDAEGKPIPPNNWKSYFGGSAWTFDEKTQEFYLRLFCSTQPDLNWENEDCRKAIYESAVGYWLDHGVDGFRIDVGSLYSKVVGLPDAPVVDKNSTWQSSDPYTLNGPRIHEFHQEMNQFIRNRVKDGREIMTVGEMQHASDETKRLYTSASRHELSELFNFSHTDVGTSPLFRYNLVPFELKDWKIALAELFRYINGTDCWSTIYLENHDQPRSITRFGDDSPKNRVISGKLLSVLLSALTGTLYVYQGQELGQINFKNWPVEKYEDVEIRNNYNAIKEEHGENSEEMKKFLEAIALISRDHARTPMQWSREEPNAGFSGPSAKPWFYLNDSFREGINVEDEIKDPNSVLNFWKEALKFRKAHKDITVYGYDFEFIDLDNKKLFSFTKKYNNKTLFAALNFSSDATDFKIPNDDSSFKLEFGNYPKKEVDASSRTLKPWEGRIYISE
T1 sequence (P53341 whole entry): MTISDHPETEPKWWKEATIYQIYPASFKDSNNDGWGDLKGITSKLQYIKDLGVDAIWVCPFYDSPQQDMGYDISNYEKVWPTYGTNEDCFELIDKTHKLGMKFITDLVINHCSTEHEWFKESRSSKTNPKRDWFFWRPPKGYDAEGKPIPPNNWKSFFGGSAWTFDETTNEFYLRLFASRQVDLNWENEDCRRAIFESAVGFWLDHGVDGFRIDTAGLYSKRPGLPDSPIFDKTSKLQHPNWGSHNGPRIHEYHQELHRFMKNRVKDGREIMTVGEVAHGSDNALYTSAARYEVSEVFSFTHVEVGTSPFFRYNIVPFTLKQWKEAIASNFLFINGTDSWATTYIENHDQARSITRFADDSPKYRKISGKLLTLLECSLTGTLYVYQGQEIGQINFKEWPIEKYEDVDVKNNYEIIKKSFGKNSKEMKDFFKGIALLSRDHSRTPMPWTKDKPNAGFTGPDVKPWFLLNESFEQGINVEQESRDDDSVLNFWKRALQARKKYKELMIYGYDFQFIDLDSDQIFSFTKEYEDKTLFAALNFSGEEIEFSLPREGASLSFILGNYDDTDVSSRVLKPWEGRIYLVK

pIC50 (Alpha-glucosidase MAL12 [1]) | inhibition [2] [%] | SMILES | other results
– | – | O=C(/C=C/c1ccc(O)c(O)c1)O[C@@H]1C[C@](O)(C(=O)O)C[C@@H](O)[C@H]1O [CHLOROGENIC ACID] | Activity (Rattus norvegicus): 74.04%; ED50 (Rattus norvegicus): 26 mg/kg
3.55 | – | C=C1C(=O)O[C@@H]2C[C@@H](C)/C=C\C(=O)[C@](C)(O)[C@H](OC(C)=O)[C@@H](OC(=O)/C(C)=C/C)[C@@H]12 [CALEIN C] | –
– | 13 | C[C@H](CC(O)C(O)C(C)(C)O)[C@H]1CC[C@@]2(C)[C@@H]3CC=C4[C@@H](CC[C@H](O[C@@H]5O[C@H](CO[C@@H]6O[C@H](CO)[C@@H](O)[C@H](O)[C@H]6O)[C@@H](O)[C@H](O)[C@H]5O)C4(C)C)[C@]3(C)CC[C@]12C (stereo partly specified) | –
– | 13.6 | COC(C)(C)/C=C/C[C@@H](C)[C@H]1CC[C@@]2(C)[C@@H]3CC[C@@]45OC(=O)[C@]3(CC[C@]12C)[C@@H]4CC[C@H](O[C@@H]1O[C@H](CO)[C@@H](O)[C@@H](O)[C@H]1O)C5(C)C | –
– | 12.5 | C[C@H](C/C=C/C(C)(C)O)[C@H]1CC[C@@]2(C)[C@@H]3C=C[C@@]45OC[C@]3(CC[C@]12C)[C@@H]4CC[C@H](O[C@@H]1O[C@H](CO)[C@@H](O)[C@@H](O)[C@H]1O)C5(C)C | –
– | 15.8 | CO[C@H]1C=C2[C@@H](CC[C@H](O[C@@H]3O[C@H](CO)[C@@H](O)[C@@H](O)[C@H]3O)C2(C)C)[C@]2(C)CC[C@]3(C)[C@@H]([C@H](C)C/C=C/C(C)(C)O)CC[C@@]3(C)[C@H]12 | –
3.38 | – | CC1(C)C=Cc2c(ccc(C(=O)CO)c2O)O1 | –
– | – | CC(C)=CC(=O)O[C@H]1C[C@@H](O)[C@@]2(C)CO[C@H]3[C@@H](O)[C@@]4(C)C5=CC[C@@H](c6ccoc6)[C@]5(C)CC[C@@H]4[C@]1(C)[C@@H]32 [MELIACINOLIN] | IC50 [3]: 32.18 mg/L (≈ 63 µM)
– | 10.9 | CO[C@@H]1O[C@]23C=C[C@@H]4[C@@]1(CC[C@]1(C)[C@@H]([C@H](C)C/C=C/C(C)(C)O)CC[C@@]41C)[C@@H]2CC[C@H](O[C@@H]1O[C@H](CO)[C@@H](O)[C@H](O)[C@H]1O)C3(C)C | –
– | 18.6 | CC(C)=C[C@H](O[C@@H]1O[C@H](CO)[C@@H](O)[C@@H](O)[C@H]1O)[C@@H](O)[C@@H](C)[C@H]1CC[C@@]2(C)[C@@H]3C=C[C@@]45OC[C@]3(CC[C@]12C)[C@@H]4CC[C@H](O[C@@H]1O[C@H](CO)[C@@H](O)[C@H](O)[C@H]1O)C5(C)C | –
– | – | COc1cc(O[C@@H]2O[C@H](CO[C@@H]3OC[C@](O)(CO)[C@H]3O)[C@@H](O)[C@H](O)[C@H]2O)c2c(-c3ccc(O)c(O)c3)cc(=O)oc2c1 | Activity (Rattus norvegicus): 68.85%; ED50 (Rattus norvegicus): 15 mg/kg
– | – | COc1cc(/C=C/C(=O)OC[C@H]2O[C@@H](O[C@H]3[C@H](Oc4cc5c(O[C@@H]6O[C@H](CO)[C@@H](O)[C@H](O)[C@H]6O)cc(O)cc5[o+]c4-c4ccc(O)c(O)c4)O[C@H](COC(=O)/C=C/c4ccc(O)c(O)c4)[C@@H](O)[C@@H]3O)[C@H](O)[C@@H](O)[C@@H]2O)ccc1O | pIC50 [4]: 3.71
– | 21.7 | C[C@H]([C@H](O)[C@@H](O)[C@@H](O)C(C)(C)O)[C@H]1CC[C@@]2(C)[C@@H]3CC=C4[C@@H](CC[C@H](O[C@@H]5O[C@H](CO[C@@H]6O[C@H](CO)[C@@H](O)[C@H](O)[C@H]6O)[C@@H](O)[C@H](O)[C@H]5O)C4(C)C)[C@]3(C)CC[C@]12C | –
– | 10.1 | C[C@H](C/C=C/C(C)(C)O)[C@H]1CC[C@@]2(C)[C@@H]3C=C[C@@]45OC[C@]3(CC[C@]12C)[C@@H]4CC[C@H](O[C@@H]1O[C@H](CO)[C@@H](O)[C@H](O)[C@H]1O)C5(C)C | –
– | 11.5 | COC(C)(C)/C=C/C[C@@H](C)[C@H]1CC[C@@]2(C)[C@@H]3C=C[C@@]45OC[C@]3(CC[C@]12C)[C@@H]4CC[C@H](O[C@@H]1O[C@H](CO)[C@@H](O)[C@H](O)[C@H]1O)C5(C)C | –
– | – | COc1cc(/C=C/C(=O)OC[C@H]2O[C@@H](O[C@H]3[C@H](Oc4cc5c(O[C@@H]6O[C@H](CO)[C@@H](O)[C@H](O)[C@H]6O)cc(O)cc5[o+]c4-c4ccc(O)c(OC)c4)O[C@H](COC(=O)/C=C/c4ccc(O)c(O)c4)[C@@H](O)[C@@H]3O)[C@H](O)[C@@H](O)[C@@H]2O)ccc1O | pIC50 [4]: 3.70
3.68 | – | O=c1cc(-c2ccc(O)c(O)c2)c2c(O)cc(O)cc2o1 | inhibition [5]: Dose-dependent effect
4.21 | – | COc1cc(O)c2c(-c3ccc(O)c(O)c3)cc(=O)oc2c1 | inhibition [5]: Dose-dependent effect

SMILES | pIC50 (Alpha-glucosidase MAL12 [1]) | inhibition [2] [%] | other results
COc1cc(-c2oc3cc(O)cc(O)c3c(=O)c2O)ccc1O [ISORHAMNETIN] | 3.80 | – | –
CCCC=C1OC(=O)c2ccccc21 [(E)-BUTYLIDENEPHTHALIDE] | 2.63 | – | inhibition [5]: Dose-dependent effect; pKi (Alpha-glucosidase MAL12 [6]): 5.31
